# Data from PubChem BioAssay AID1918942 (Molecular Pharmacology Branch, DTP, NCI, 2023).
# Tested on: 743489-274-T-PDC complex spheroid viability
# Test: Anticancer human tumor 743489-274-T-PDC patient-derived renal cell carcinoma cell line growth inhibition
# Settings: for IC50: curve of first compound; for viability, T/C: stronger effect = lower value
# Procedure, shortened: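 Drug combinations with the LSD1 inhibitor iadademstat tested on tumor cells co-cultured as spheroids with endothelial cells and mesenchymal stem cells. Concentrations descended in half-log increments from clinical Cmax or 10 microM.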
# [1] = second compound 0.1 µM, first compound 0.0316 µM
# [2] = second compound 0.1 µM, first compound 0.1 µM
# [3] = second compound 0.1 µM, first compound 0.316 µM
# [4] = second compound 0.1 µM, first compound 1 µM
# [5] = second compound 0.1 µM, first compound 3.16 µM
# [6] = second compound 0.1 µM, first compound 10 µM
# [7] = second compound 0.316 µM, first compound 0.0316 µM
# [8] = second compound 0.316 µM, first compound 0.1 µM
# [9] = second compound 0.316 µM, first compound 0.316 µM
# [10] = second compound 0.316 µM, first compound 1 µM
# [11] = second compound 0.316 µM, first compound 3.16 µM
# [12] = second compound 0.316 µM, first compound 10 µM
# [13] = second compound 1 µM, first compound 0.0316 µM
# [14] = second compound 1 µM, first compound 0.1 µM
# [15] = second compound 1 µM, first compound 0.316 µM
# [16] = second compound 1 µM, first compound 1 µM
# [17] = second compound 1 µM, first compound 3.16 µM
# [18] = second compound 1 µM, first compound 10 µM
# [19] = second compound 3.16 µM, first compound 0.0316 µM
# [20] = second compound 3.16 µM, first compound 0.1 µM
# [21] = second compound 3.16 µM, first compound 0.316 µM
# [22] = second compound 3.16 µM, first compound 1 µM
# [23] = second compound 3.16 µM, first compound 3.16 µM
# [24] = second compound 3.16 µM, first compound 10 µM
# [25] = second compound 10 µM, first compound 0.0316 µM
# [26] = second compound 10 µM, first compound 0.1 µM
# [27] = second compound 10 µM, first compound 0.316 µM
# [28] = second compound 10 µM, first compound 1 µM
# [29] = second compound 10 µM, first compound 3.16 µM
# [30] = second compound 10 µM, first compound 10 µM
# [31] = second compound 0.1 µM, first compound 0.00949 µM
# [32] = second compound 0.1 µM, first compound 0.03 µM
# [33] = second compound 0.1 µM, first compound 0.0949 µM
# [34] = second compound 0.1 µM, first compound 0.3 µM
# [35] = second compound 0.316 µM, first compound 0.00949 µM
# [36] = second compound 0.316 µM, first compound 0.03 µM
# [37] = second compound 0.316 µM, first compound 0.0949 µM
# [38] = second compound 0.316 µM, first compound 0.3 µM
# [39] = second compound 1 µM, first compound 0.00949 µM
# [40] = second compound 1 µM, first compound 0.03 µM
# [41] = second compound 1 µM, first compound 0.0949 µM
# [42] = second compound 1 µM, first compound 0.3 µM
# [43] = second compound 3.16 µM, first compound 0.00949 µM
# [44] = second compound 3.16 µM, first compound 0.03 µM
# [45] = second compound 3.16 µM, first compound 0.0949 µM
# [46] = second compound 3.16 µM, first compound 0.3 µM
# [47] = second compound 10 µM, first compound 0.00949 µM
# [48] = second compound 10 µM, first compound 0.03 µM
# [49] = second compound 10 µM, first compound 0.0949 µM
# [50] = second compound 10 µM, first compound 0.3 µM
# 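Further: spheroids exposed to compounds for 7 days before readout.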
# 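Wherever viability, T/C is given: 100% = DMSO vehicle control wells.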
smiles,measurement,setting,value
CC1(C)CCC(CN2CCN(c3ccc(C(=O)NS(=O)(=O)c4ccc(NCC5CCOCC5)c([N+](=O)[O-])c4)c(Oc4cnc5[nH]ccc5c4)c3)CC2)=C(c2ccc(Cl)cc2)C1 + NC1CCC(NC2CC2c2ccccc2)CC1,IC50,second compound 0.1 µM,> 10 µM
same,IC50,second compound 0.316 µM,> 10 µM
same,IC50,second compound 1 µM,> 10 µM
same,IC50,second compound 3.16 µM,> 10 µM
same,IC50,second compound 10 µM,> 10 µM
same,"viability, T/C",[1],105%
same,"viability, T/C",[2],124%
same,"viability, T/C",[3],114%
same,"viability, T/C",[4],105%
same,"viability, T/C",[5],125%
same,"viability, T/C",[6],124%
same,"viability, T/C",[7],125%
same,"viability, T/C",[8],122%
same,"viability, T/C",[9],116%
same,"viability, T/C",[10],109%
same,"viability, T/C",[11],117%
same,"viability, T/C",[12],123%
same,"viability, T/C",[13],125%
same,"viability, T/C",[14],114%
same,"viability, T/C",[15],119%
same,"viability, T/C",[16],126%
same,"viability, T/C",[17],134%
same,"viability, T/C",[18],136%
same,"viability, T/C",[19],114%
same,"viability, T/C",[20],130%
same,"viability, T/C",[21],134%
same,"viability, T/C",[22],114%
same,"viability, T/C",[23],117%
same,"viability, T/C",[24],111%
same,"viability, T/C",[25],128%
same,"viability, T/C",[26],117%
same,"viability, T/C",[27],118%
same,"viability, T/C",[28],122%
same,"viability, T/C",[29],129%
same,"viability, T/C",[30],102%
CC1COCCN1c1cc(C2(S(C)(=N)=O)CC2)nc(-c2ccnc3[nH]ccc23)n1 (stereo not given) + NC1CCC(NC2CC2c2ccccc2)CC1,IC50,second compound 0.1 µM,> 10 µM
same,IC50,second compound 0.316 µM,> 10 µM
same,IC50,second compound 1 µM,> 10 µM
same,IC50,second compound 3.16 µM,> 10 µM
same,IC50,second compound 10 µM,> 10 µM
same,"viability, T/C",[1],108%
same,"viability, T/C",[2],106%
same,"viability, T/C",[3],108%
same,"viability, T/C",[4],116%
same,"viability, T/C",[5],93.7%
same,"viability, T/C",[6],92.1%
same,"viability, T/C",[7],99.6%
same,"viability, T/C",[8],111%
same,"viability, T/C",[9],107%
same,"viability, T/C",[10],108%
same,"viability, T/C",[11],112%
same,"viability, T/C",[12],98.6%
same,"viability, T/C",[13],103%
same,"viability, T/C",[14],123%
same,"viability, T/C",[15],115%
same,"viability, T/C",[16],113%
same,"viability, T/C",[17],99.8%
same,"viability, T/C",[18],94.9%
same,"viability, T/C",[19],112%
same,"viability, T/C",[20],103%
same,"viability, T/C",[21],107%
same,"viability, T/C",[22],106%
same,"viability, T/C",[23],98.5%
same,"viability, T/C",[24],92.7%
same,"viability, T/C",[25],112%
same,"viability, T/C",[26],103%
same,"viability, T/C",[27],111%
same,"viability, T/C",[28],121%
same,"viability, T/C",[29],106%
same,"viability, T/C",[30],94.6%
CCN(c1cc(-c2ccc(CN3CCOCC3)cc2)cc(C(=O)NCc2c(C)cc(C)[nH]c2=O)c1C)C1CCOCC1 + NC1CCC(NC2CC2c2ccccc2)CC1,IC50,second compound 0.1 µM,> 3 µM
same,IC50,second compound 0.316 µM,> 3 µM
same,IC50,second compound 1 µM,> 3 µM
same,IC50,second compound 3.16 µM,> 3 µM
same,IC50,second compound 10 µM,> 3 µM
same,"viability, T/C",[31],104%
same,"viability, T/C",[32],103%
same,"viability, T/C",[33],101%
same,"viability, T/C",[34],102%
same,"viability, T/C","second compound 0.1 µM, first compound 0.949 µM",107%
same,"viability, T/C","second compound 0.1 µM, first compound 3 µM",104%
same,"viability, T/C",[35],91.1%
same,"viability, T/C",[36],98.5%
same,"viability, T/C",[37],97.4%
same,"viability, T/C",[38],96.2%
same,"viability, T/C","second compound 0.316 µM, first compound 0.949 µM",104%
same,"viability, T/C","second compound 0.316 µM, first compound 3 µM",102%
same,"viability, T/C",[39],99.8%
same,"viability, T/C",[40],106%
same,"viability, T/C",[41],101%
same,"viability, T/C",[42],105%
same,"viability, T/C","second compound 1 µM, first compound 0.949 µM",104%
same,"viability, T/C","second compound 1 µM, first compound 3 µM",106%
same,"viability, T/C",[43],107%
same,"viability, T/C",[44],106%
same,"viability, T/C",[45],110%
same,"viability, T/C",[46],105%
same,"viability, T/C","second compound 3.16 µM, first compound 0.949 µM",113%
same,"viability, T/C","second compound 3.16 µM, first compound 3 µM",111%
same,"viability, T/C",[47],109%
same,"viability, T/C",[48],107%
same,"viability, T/C",[49],108%
same,"viability, T/C",[50],95.7%
same,"viability, T/C","second compound 10 µM, first compound 0.949 µM",100%
same,"viability, T/C","second compound 10 µM, first compound 3 µM",104%
Nc1ncn(C2CC(O)C(CO)S2)c(=O)n1 (stereo not given) + NC1CCC(NC2CC2c2ccccc2)CC1,IC50,second compound 0.1 µM,> 0.3 µM
same,IC50,second compound 0.316 µM,> 0.3 µM
same,IC50,second compound 1 µM,> 0.3 µM
same,IC50,second compound 3.16 µM,> 0.3 µM
same,IC50,second compound 10 µM,> 0.3 µM
same,"viability, T/C","second compound 0.1 µM, first compound 0.000949 µM",116%
same,"viability, T/C","second compound 0.1 µM, first compound 0.003 µM",95.5%
same,"viability, T/C",[31],104%
same,"viability, T/C",[32],91.1%
same,"viability, T/C",[33],89.6%
same,"viability, T/C",[34],80.5%
same,"viability, T/C","second compound 0.316 µM, first compound 0.000949 µM",106%
same,"viability, T/C","second compound 0.316 µM, first compound 0.003 µM",105%
same,"viability, T/C",[35],120%
same,"viability, T/C",[36],110%
same,"viability, T/C",[37],95.6%
same,"viability, T/C",[38],103%
same,"viability, T/C","second compound 1 µM, first compound 0.000949 µM",118%
same,"viability, T/C","second compound 1 µM, first compound 0.003 µM",112%
same,"viability, T/C",[39],107%
same,"viability, T/C",[40],97.6%
same,"viability, T/C",[41],87.6%
same,"viability, T/C",[42],87%
same,"viability, T/C","second compound 3.16 µM, first compound 0.000949 µM",112%
same,"viability, T/C","second compound 3.16 µM, first compound 0.003 µM",116%
same,"viability, T/C",[43],96.8%
same,"viability, T/C",[44],108%
same,"viability, T/C",[45],88.4%
same,"viability, T/C",[46],102%
same,"viability, T/C","second compound 10 µM, first compound 0.000949 µM",113%
same,"viability, T/C","second compound 10 µM, first compound 0.003 µM",125%
same,"viability, T/C",[47],101%
same,"viability, T/C",[48],104%
same,"viability, T/C",[49],93.4%
same,"viability, T/C",[50],98%
O=C(C=Cn1cnc(-c2cc(C(F)(F)F)cc(C(F)(F)F)c2)n1)NNc1cnccn1 + NC1CCC(NC2CC2c2ccccc2)CC1,IC50,second compound 0.1 µM,> 1 µM
same,IC50,second compound 0.316 µM,> 1 µM
same,IC50,second compound 1 µM,> 1 µM
same,IC50,second compound 3.16 µM,> 1 µM
same,IC50,second compound 10 µM,> 1 µM
same,"viability, T/C","second compound 0.1 µM, first compound 0.00316 µM",102%
same,"viability, T/C","second compound 0.1 µM, first compound 0.01 µM",112%
same,"viability, T/C",[1],113%
same,"viability, T/C",[2],114%
same,"viability, T/C",[3],102%
same,"viability, T/C",[4],96%
same,"viability, T/C","second compound 0.316 µM, first compound 0.00316 µM",95%
same,"viability, T/C","second compound 0.316 µM, first compound 0.01 µM",107%
same,"viability, T/C",[7],131%
same,"viability, T/C",[8],106%
same,"viability, T/C",[9],97.8%
same,"viability, T/C",[10],81.3%
same,"viability, T/C","second compound 1 µM, first compound 0.00316 µM",103%
same,"viability, T/C","second compound 1 µM, first compound 0.01 µM",119%
same,"viability, T/C",[13],130%
same,"viability, T/C",[14],113%
same,"viability, T/C",[15],91.6%
same,"viability, T/C",[16],81.8%
same,"viability, T/C","second compound 3.16 µM, first compound 0.00316 µM",112%
same,"viability, T/C","second compound 3.16 µM, first compound 0.01 µM",121%
same,"viability, T/C",[19],140%
same,"viability, T/C",[20],116%
same,"viability, T/C",[21],91.8%
same,"viability, T/C",[22],82.5%
same,"viability, T/C","second compound 10 µM, first compound 0.00316 µM",120%
same,"viability, T/C","second compound 10 µM, first compound 0.01 µM",124%
same,"viability, T/C",[25],126%
same,"viability, T/C",[26],113%
same,"viability, T/C",[27],102%
same,"viability, T/C",[28],95.9%
